Reference: patent US10700298B2, “OLED display panel and electronic device comprising the same” (SHANGHAI TIANMA AM-OLED CO., LTD., priority 2016, dated 2020)
In brackets after ≈: the same amount, converted by molar mass.

test: not given; conditions: in words; material disclosed in CN103108859; cited from earlier work

SMILES | solubility
CC1(C)c2ccccc2-c2ccc(N(c3ccc4c(c3)C3(c5ccccc5-c5ccccc53)c3ccccc3-4)c3ccccc3-c3ccccc3)cc21 | good

test: Solubility of the hole transporting material in NMP; assay type: physicochemical; conditions: N-methylpyrrolidone

SMILES | solubility in NMP [mg/mL]
c1ccc(-c2ccc(N(c3ccc(-c4ccccc4)cc3)c3ccc(-c4ccc(N(c5ccc(-c6ccccc6)cc5)c5ccc(-c6ccccc6)cc5)cc4)cc3)cc2)cc1 [Comparative Example 1, reference compound] | 1.2 (≈ 1.51 mM)
c1ccc(-c2ccc(N(c3ccc(-c4ccccc4)cc3)c3ccc(-c4ccc(N(c5ccc(-c6ccccc6)cc5)c5ccc(-c6ccccc6)cc5)c5c4CCCC5)cc3)cc2)cc1 [Comparative Example 3, reference compound] | 2.5 (≈ 2.95 mM)
Cc1cccc(-c2ccc(N(c3ccc(-c4cccc(C)c4)cc3)c3ccc(-c4cc(C)c(N(c5ccc(-c6cccc(C)c6)cc5)c5ccc(-c6cccc(C)c6)cc5)c(C)c4)cc3)cc2)c1 [Example 1] | 15 (≈ 17.1 mM)
Cc1cccc(-c2ccc(N(c3ccc(-c4cc(C)c(N(c5ccc(-c6cccc(C)c6)c(C)c5)c5ccc(-c6cccc(C)c6)c(C)c5)c(C)c4)cc3)c3ccc(-c4cccc(C)c4)c(C)c3)cc2C)c1 [Example 2] | 25 (≈ 26.8 mM)
CC(C)c1ccc(-c2ccc(N(c3ccc(-c4ccccc4)cc3)c3ccc(-c4ccc(N(c5ccc(-c6ccccc6)cc5)c5ccc(-c6ccc(C(C)C)cc6)cc5)c(C(C)C)c4)cc3)cc2)cc1 [Example 3] | 12 (≈ 13.1 mM)
Cc1cc(N(c2ccc(-c3ccccc3)cc2)c2ccc(-c3ccc(C(C)C)cc3)cc2)ccc1-c1ccc(N(c2ccc(-c3ccccc3)cc2)c2ccc(-c3ccc(C(C)C)cc3)cc2)cc1 [Example 4] | 12 (≈ 13.5 mM)
Cc1ccc(-c2ccc(N(c3ccc(-c4cccc(C)c4)cc3)c3ccc(-c4ccc(N(c5ccc(-c6ccccc6)cc5)c5ccc(-c6ccc(C)cc6)cc5)c5c4CCCC5)cc3)cc2)cc1 [Example 9] | 35 (≈ 39.4 mM)
Cc1cccc(-c2ccc(N(c3ccc(-c4cccc5c4CCCC5)cc3)c3ccc(-c4ccc(N(c5ccc(-c6cccc(C)c6)cc5)c5ccc(-c6cccc7c6CCCC7)cc5)c5c4CCCC5)cc3)cc2)c1 [Example 10] | 19 (≈ 19.3 mM)
Cc1cc(N(c2ccc(-c3ccccc3)cc2)c2ccc(-c3cccc4c3CCCC4)cc2)ccc1-c1ccc(N(c2ccc(-c3ccccc3)cc2)c2ccc(-c3cccc4c3CCCC4)cc2)cc1 [Example 11] | 15 (≈ 16.4 mM)
Cc1ccccc1-c1ccc(N(c2ccc(-c3ccccc3)cc2)c2ccc(-c3ccc(N(c4ccc(-c5ccccc5)cc4)c4ccc(-c5ccccc5C)c5c4CCCC5)c4c3CCCC4)cc2)c2c1CCCC2 [Example 12] | 21 (≈ 21.4 mM)
